Assay results: the NIST ThermoML archive (doi:10.1016/j.tca.2011.08.002)

Assay: xn = mol fraction of the nth substance listed
Details: 101 kPa, Liquid, Vibrating tube method

C1CCC(NC2CCCCC2)CC1 [N-cyclohexylcyclohexanamine] + CCCCO
mass density [kg/m3]
Details | 288.15 K | 293.15 K | 298.15 K | 303.15 K | 308.15 K | 313.15 K | 318.15 K | 323.15 K
x2 = 0 | 915.498 | 911.705 | 907.923 | 904.144 | 900.372 | 896.608 | 892.847 | 889.089
x2 = 0.0512 | 914.315 | 910.505 | 906.698 | 902.899 | 899.101 | 895.307 | 891.512 | 887.718
x2 = 0.1 | 912.993 | 909.162 | 905.333 | 901.51 | 897.686 | 893.863 | 890.04 | 886.213
x2 = 0.2005 | 909.753 | 905.869 | 901.986 | 898.104 | 894.222 | 890.338 | 886.452 | 882.559
x2 = 0.3005 | 905.695 | 901.749 | 897.806 | 893.865 | 889.919 | 885.971 | 882.018 | 878.053
x2 = 0.4005 | 900.544 | 896.535 | 892.53 | 888.526 | 884.519 | 880.507 | 876.487 | 872.455
x2 = 0.5 | 893.978 | 889.912 | 885.853 | 881.79 | 877.726 | 873.654 | 869.572 | 865.476
x2 = 0.6002 | 885.407 | 881.306 | 877.207 | 873.106 | 868.997 | 864.881 | 860.75 | 856.603
x2 = 0.7002 | 874.118 | 870.025 | 865.925 | 861.822 | 857.708 | 853.579 | 849.434 | 845.267
x2 = 0.7984 | 859.411 | 855.383 | 851.344 | 847.289 | 843.219 | 839.126 | 835.005 | 830.854
x2 = 0.8999 | 839.302 | 835.393 | 831.466 | 827.516 | 823.538 | 819.533 | 815.488 | 811.404
x2 = 0.9493 | 827.33 | 823.486 | 819.618 | 815.728 | 811.807 | 807.851 | 803.854 | 799.814
